Laboratory results published in patent US20220265772A1, “USES OF DAN FAMILY BMP ANTAGONISTS FOR INHIBITING OCULAR NEOVASCULARIZATION AND TREATING OCULAR CONDITIONS” (9636137 Canada Inc., priority 2019, published 2022).

Columns and labels:
[1] = system: Wnt signaling; test: Canonical Wnt signaling in HUVECs (immunoblotting, β-catenin immunofluorescence); assay type: cell-based, human
Protocol: FIG. 12 is a panel with a schematic, pictures showing that Dand5 reduces canonical Wnt signaling in HUVECs. HUVECs were plated to confluence and received a 2 h scratch in the presence or absence of Dand5 ([…]) or IWR1 (3 μM). β-catenin (green) localization was examined by immunofluorescence with phalloidin and DAPI (nuclei) to identify the cell boundaries and nucleus. […] Scale bars, […]).
Cells were washed with cold PBS and extracted in Laemmli's buffer, followed by sonication. Samples were run on SDS-PAGE gels and transferred onto nitrocellulose membranes. Membranes were blocked with 5% Bovine Serum Albumin (BSA) and probed with primary antibodies overnight at 4° C.: beta-Catenin (Cell Signaling Technology), phospho-beta-catenin (Cell Signaling Technology), Axin2 (Cell Signaling Technology), beta-Actin (Santa Cruz Technologies). HRP-conjugated secondary antibodies (Vector Laboratories) were used to detect primary antibodies.
We next evaluated the molecular mechanisms underlying the effects of DAND5 on endothelial cells. […] Wnt signaling regulates fundamental aspects of vascular development, including cell fate specification, proliferation and survival. […] HUVECs were treated for up to 24 hours with DAND5 or IWR-1, an inhibitor of Wnt canonical signaling. Protein extracts were harvested and subjected to immunoblotting against downstream effectors of Wnt signaling. […] The levels of β-catenin at different subcellular localizations are regulated by a variety of processes including site-specific phosphorylation of β-catenin. In the absence of an active Wnt signaling, β-catenin localization at cellular junctions is reduced and cytoplasmic β-catenin associates with the destruction complex (6).

[2] = system: HUVECs; test: Free radicals / ROS in HUVECs (DCFDA, MitoSoxRed); assay type: cell-based, human; conditions: HUVECs treated with DAND5 plus NAC
Protocol: FIG. 8 is a panel with graphs and pictures showing that Dand5 induces mitochondrial oxidative stress and alters ATP levels in HUVECs. FIG. 8A: HUVEC cells were treated with Dand5 in the presence or not of N-acetylcysteine (NAC) for up to 48 hours. Cells were then incubated with H2DCFDA. Hydrogen peroxide treated cells (H2O2) were included as a positive control. Fluorescence was measured at Ex: 485 nm and Em: 535 nm in a plate reader. Relative Fluorescence Units (RFU) were generated by normalizing the reading of each well to Hoescht staining (n=3,*p<0.05 **p<0.001). FIG. 8B: HUVEC cells were treated with Dand5 in for up to 48 hours. Cells were incubated with MitoSox Red. 3-nitro-proprionic acid (3-NP) treated cells were also examined as a positive control. Fluorescence was measured at Ex: 544 nm and Em: 590 nm. Relative Fluorescence Units (RFU) were generated by normalizing the reading of each well to Hoescht staining (n=3,*p<0.05). FIG. 8C: Primary culture of choroidal sprouts were treated with Dand5 in the absence or presence of NAC. FIG. 8D: Quantification of sprouting area by Image J. FIG. 8E: The ratio of NAD+ to NADH in whole cell extracts was determined using an Alcohol Dehydrogenase/Malate Dehydrogenase enzymatic cycling assay. Cells treated to hypoxic conditions (4% O2 for 3 hours) were included as a positive control (n=3,*p<0.05, **p<0.01). Likewise, glucose uptake was reduced in Dand5-treated HUVECs after 1 hour, while lactate levels were increased (lower panel). FIG. 8F: ATP levels were reduced in HUVECs exposed to Dand5 at 1, 6 and 24 hours (n=3,*p=0.05).
We exposed or not HUVECs to recombinant DAND5 and measured the concentration of free radicals using DCFDA and MitoSoxRed™. […] To further test this, we measure the NAD+/NADH ratio in cells treated or not with DAND5. […] Likewise, glucose uptake was reduced and lactate levels were increased in DAND5-treated HUVECs after 1 h (FIG. 8E, lower panel).

[3] = system: mouse choroidal explants; test: Choroidal explant sprouting in culture; assay type: cell-based; conditions: mouse choroidal explants, DAND5 plus NAC
Protocol: FIG. 1 is a panel with pictures, bar graphs, and graphs showing that Dand5 reduces VEGF-mediated sprouting angiogenesis in cultured endothelial cells. FIG. 1A: HUVECs grown in a fibrinogen gel were treated with VEGF to induce tube formation in the presence or absence of Dand5. […] FIG. 1B: HUVECs were plated to confluency and scratched to stimulate a wound in the presence or absence of Dand5. Scale bar, 100 μm. FIG. 1C: Quantification of tube formation in FIG. 1A n=3, *p<0.05, **p<0.01). FIG. 1E: Choroids were isolated from wild-type mice and cultured in vitro in the absence or presence of Dand5. […] FIG. 1F: Quantification of sprouting areas in choroidal sprouts (n=3, ***p<0.0001). […] FIG. 1H: HUVECs were cultured in the presence or absence of Dand5 and analyzed by immunofluorescence using antibodies against phospho-Histone 3 (PH3), a marker of cellular mitosis, and phalloidin and DAPI (nuclei). […] FIG. 1I: Quantification immunofluorescent staining of phospho-histone 3 positive cells. […] FIG. 1K: Quantification of immunofluorescent staining of cleaved caspase 3 (n=2, n.s.).
To evaluate the cellular mechanisms underlying the inhibitory effects of DAND5 on endothelial cells sprouting, we assessed the effects of DAND5 on endothelial cell migration and proliferation. […]
We exposed or not HUVECs to recombinant DAND5 and measured the concentration of free radicals using DCFDA and MitoSoxRed™. […]

[4] = system: geographic atrophy (GA); conditions: in vivo; cited from earlier work
[5] = system: Wnt-induced angiogenesis; test: Wnt1 and DAND5 co-injection during retinal vascular development (P1 to P5); assay type: in vivo, mouse
Protocol: FIG. 13 is a panel with pictures and graphs showing that Dand5 opposes Wnt1-mediated hypervascularization during retinal vascular development. FIG. 13A: Schematic representation of experimental design. C57B6 pups were injected at P1 with PBS, Dand5 (60 ng/mL), Wnt1, or Wnt1 and Dand5 together at various molar ratios (1N, 5N and 10N). FIG. 13B: Representative images of retinas treated with PBS, Dand5 (1N) or Wnt1 (1N). FIG. 13C: Representative images of retinas treated with PBS or with Wnt1 (5N and 10N) alone or in combination with Danb5. Dand5 Flatmounts retinas were stained with Isolectin B4 to visualize the vasculature. FIG. 13D: Quantification of vascular branches in treated eyes. […] To address the antagonism of DAND5 on Wnt-induced angiogenesis, retinas were injected with recombinant DAND5 (60 ng) with increasing concentrations of Wnt1 (0, 1, 5 or 10× molar ratio) at P1 and retinas were harvested at P5 (FIG. 13A).

[6] = HUVECs treated for up to 24 hours, immunoblotting

O=C(Nc1cccc2cccnc12)c1ccc(N2C(=O)[C@@H]3[C@H](C2=O)[C@@H]2C=C[C@H]3C2)cc1 [IWR-1, reference compound]
levels of Axin2 [1, 6]: increased levels of Axin2 | levels of phosphorylated beta-catenin [1, 6]: increased levels of phosphorylated beta-catenin | levels of total beta-catenin [1, 6]: decreased levels of total beta-catenin | cytoplasmic β-catenin ([1]; confluent HUVECs, 2 h scratch, Dand5 60n/mL or IWR1 3 μM): increased cytoplasmic β-catenin

CC(=O)N[C@@H](CS)C(=O)O [NAC, N-acetyl cystein, reference compound]
reversal of DAND5-induced free radical elevation [2]: could be overcome by exposing cells to N-acetyl cystein (NAC) | growth of DAND5-treated choroidal explants when also treated with NAC [3]: partially rescued

bevacizumab: VEGF inhibitor
risk of geographic atrophy (GA) progression [4]: increased risks of geographic atrophy (GA) progression

ranibizumab: VEGF inhibitor
risk of geographic atrophy (GA) progression [4]: increased risks of geographic atrophy (GA) progression

B1: Wnt1: Wnt1 injected into mouse retinas, alone or with DAND5, at increasing molar ratios (protein, UniProt P04426 28-370, looked up)
Proto-oncogene Wnt-1: ANSSGRWWGIVNIASSTNLLTDSKSLQLVLEPSLQLLSRKQRRLIRQNPGILHSVSGGLQSAVRECKWQFRNRRWNCPTAPGPHLFGKIVNRGCRETAFIFAITSAGVTHSVARSCSEGSIESCTCDYRRRGPGGPDWHWGGCSDNIDFGRLFGREFVDSGEKGRDLRFLMNLHNNEAGRTTVFSEMRQECKCHGMSGSCTVRTCWMRLPTLRAVGDVLRDRFDGASRVLYGNRGSNRASRAELLRLEPEDPAHKPPSPHDLVYFEKSPNFCTYSGRLGTAGTAGRACNSSSPALDGCELLCCGRGHRTRTQRVTERCNCTFHWCCHVSCRNCTHTRVLHECL
retinal vascular density ([5]; Wnt1 injected at P1, retinas at P5, IsoB4 staining): retinal vascular density was increased | retinal vascularization at 16.6 and 33.3 pmoles ([5]; Wnt1 injections of 16.6 and 33.3 pmoles, P1 to P5): significant hypervascularization | rescue of the inhibitory effects of DAND5 on retinal angiogenesis ([5]; concomitant injection of DAND5 (60 ng) with Wnt1 (10 molar ratio)): partially rescued the inhibitory effects of DAND5 on retinal angiogenesis | mutual antagonism on vascular branches ([5]; quantification of vascular branches in treated eyes): mutually antagonist activities
